# Experimental data as given in US20100284912A1, “HOMOGENIZATION OF A RADIOPHARMACEUTICAL USING SONIFICATION AND/OR ROTOR-STATOR TECHNOLOGY TO PRODUCE A HOMOGENOUS SUSPENSION, EMULSION, MIXTURE OR SOLID SUSPENSION OF IMMISCIBLE INGREDIENTS” (BRACCO DIAGNOSTICS INC., priority 2007, published 2010).
# Experiment: Thermo Gravimetric Analyzer (TGA) % volatiles (water)
# Assay type: physicochemical
# Settings: 10° C./min to 110° C., isothermal hold 60 min
# Experimental: 10 mg was collected for each sample. A heating ramp of 10° C./min from room temperature to 110° C. with an isothermal hold at 110° C. for 60 min was used in the analysis. Table 4 below depicts the % volatiles (water) which were found versus the theoretical values.
row,SMILES,% Volatiles Found
1,O=P([O-])([O-])O.[K+].[K+] [Potassium Phosphate Dibasic],2.7%
2,O=S([O-])([O-])=S.[Na+].[Na+] [Sodium Thiosulfate],33%
